This is an account of results in ChEMBL document CHEMBL3091289, “Design of fluorinated 5-HT(4)R antagonists: influence of the basicity and lipophilicity toward the 5-HT(4)R binding affinities” (Bioorg Med Chem, 2013).

A word on the inhibition: it is the relative decrease from the control value, in per cent. A high value points to a response far below the control. As usually defined, the Ki is the dissociation constant of the complex between target and ligand, obtained from inhibition or displacement. Higher therefore signals weaker binding.

The target in assay [1] is 5-hydroxytryptamine receptor 4 (Cavia porcellus) (UniProt O70528). In words: Displacement of [3H]GR113808 from 5HT4R in guinea pig striatal membranes at 10^-8 M. The format is cell membranes. The conditions noted are these: Striatum, Membrane. In general terms: Displacement assays read how much labelled ligand stays bound in the presence of the test substance.
Sequence of 5-hydroxytryptamine receptor 4 (Cavia porcellus) (O70528 whole entry): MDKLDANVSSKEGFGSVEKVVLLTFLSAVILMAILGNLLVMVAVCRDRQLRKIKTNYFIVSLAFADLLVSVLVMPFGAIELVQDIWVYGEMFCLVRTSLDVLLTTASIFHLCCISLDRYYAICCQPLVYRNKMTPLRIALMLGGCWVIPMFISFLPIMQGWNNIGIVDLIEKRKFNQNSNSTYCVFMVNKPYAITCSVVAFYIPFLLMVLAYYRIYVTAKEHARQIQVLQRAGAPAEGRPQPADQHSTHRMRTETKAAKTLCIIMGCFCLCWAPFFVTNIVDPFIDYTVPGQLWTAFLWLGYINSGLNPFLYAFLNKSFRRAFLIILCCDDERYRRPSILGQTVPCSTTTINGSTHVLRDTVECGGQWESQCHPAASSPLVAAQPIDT
Assay [2] shares this target. The assay is described as follows: Displacement of [3H]GR113808 from 5HT4R in guinea pig striatal membranes at 10^-6 M. The format is cell membranes. The note with it: Striatum, Membrane.
Assay [3] deals with 5-hydroxytryptamine receptor 7 (Homo sapiens, UniProt P34969). In words: Binding affinity to human 5HT7.
Sequence of 5-hydroxytryptamine receptor 7 (P34969 whole entry): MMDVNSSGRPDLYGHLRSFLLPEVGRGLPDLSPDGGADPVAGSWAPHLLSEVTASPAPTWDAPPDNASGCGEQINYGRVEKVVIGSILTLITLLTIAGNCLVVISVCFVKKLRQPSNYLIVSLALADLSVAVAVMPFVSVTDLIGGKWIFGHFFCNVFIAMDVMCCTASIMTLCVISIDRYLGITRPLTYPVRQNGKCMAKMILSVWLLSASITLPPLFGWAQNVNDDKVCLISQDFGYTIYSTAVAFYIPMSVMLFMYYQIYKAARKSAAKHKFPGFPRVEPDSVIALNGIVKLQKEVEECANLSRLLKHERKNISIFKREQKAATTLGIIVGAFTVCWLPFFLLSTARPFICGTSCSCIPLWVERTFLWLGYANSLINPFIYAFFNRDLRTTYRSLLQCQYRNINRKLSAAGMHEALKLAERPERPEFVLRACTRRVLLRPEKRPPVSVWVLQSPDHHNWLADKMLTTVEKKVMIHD
Assay [4] addresses 5-hydroxytryptamine receptor 6 (Homo sapiens, UniProt P50406). In words: Binding affinity to human 5HT6.
Assay [5] has as its target 5-hydroxytryptamine receptor 5A (Homo sapiens, UniProt P47898). In words: Binding affinity to human 5HT5A.
Assay [6] has as its target T1, 5-hydroxytryptamine receptor 3A (Homo sapiens, UniProt P46098).
T1 sequence (P46098 whole entry): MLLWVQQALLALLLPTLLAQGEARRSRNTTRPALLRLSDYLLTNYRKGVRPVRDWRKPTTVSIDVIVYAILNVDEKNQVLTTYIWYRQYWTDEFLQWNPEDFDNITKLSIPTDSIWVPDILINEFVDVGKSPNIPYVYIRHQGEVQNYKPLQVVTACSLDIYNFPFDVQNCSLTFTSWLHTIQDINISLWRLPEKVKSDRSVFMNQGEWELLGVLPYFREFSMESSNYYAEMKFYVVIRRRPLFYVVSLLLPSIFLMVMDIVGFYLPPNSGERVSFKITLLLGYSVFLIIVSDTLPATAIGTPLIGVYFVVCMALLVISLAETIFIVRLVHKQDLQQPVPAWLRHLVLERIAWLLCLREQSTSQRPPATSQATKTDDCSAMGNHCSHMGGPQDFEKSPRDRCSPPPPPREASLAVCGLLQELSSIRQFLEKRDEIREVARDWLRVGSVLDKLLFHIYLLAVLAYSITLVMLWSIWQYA
The assay is described as follows: Binding affinity to human 5HT3.

Assay [7] has as its target 5-hydroxytryptamine receptor 2B (Homo sapiens, UniProt P41595). In words: Binding affinity to human 5HT2B.
The target in assay [8] is T2, 5-hydroxytryptamine receptor 2C (Homo sapiens, UniProt P28335).
T2 sequence (P28335 whole entry): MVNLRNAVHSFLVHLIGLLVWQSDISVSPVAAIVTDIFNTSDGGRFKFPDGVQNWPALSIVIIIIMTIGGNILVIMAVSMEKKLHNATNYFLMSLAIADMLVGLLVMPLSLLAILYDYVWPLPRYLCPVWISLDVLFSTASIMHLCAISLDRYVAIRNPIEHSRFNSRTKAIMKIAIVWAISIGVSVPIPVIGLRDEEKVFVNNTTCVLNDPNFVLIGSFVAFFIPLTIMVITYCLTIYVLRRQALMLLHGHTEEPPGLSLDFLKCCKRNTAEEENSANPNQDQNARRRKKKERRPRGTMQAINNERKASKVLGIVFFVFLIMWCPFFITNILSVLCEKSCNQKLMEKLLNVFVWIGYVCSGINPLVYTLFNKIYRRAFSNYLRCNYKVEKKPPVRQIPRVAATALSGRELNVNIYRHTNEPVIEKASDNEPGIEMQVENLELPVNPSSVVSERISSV
In words: Binding affinity to human 5HT2C.

The target in assay [9] is 5-hydroxytryptamine receptor 2A (Homo sapiens, UniProt P28223). The assay is described as follows: Binding affinity to human 5HT2A.
Sequence of 5-hydroxytryptamine receptor 2A (P28223 whole entry): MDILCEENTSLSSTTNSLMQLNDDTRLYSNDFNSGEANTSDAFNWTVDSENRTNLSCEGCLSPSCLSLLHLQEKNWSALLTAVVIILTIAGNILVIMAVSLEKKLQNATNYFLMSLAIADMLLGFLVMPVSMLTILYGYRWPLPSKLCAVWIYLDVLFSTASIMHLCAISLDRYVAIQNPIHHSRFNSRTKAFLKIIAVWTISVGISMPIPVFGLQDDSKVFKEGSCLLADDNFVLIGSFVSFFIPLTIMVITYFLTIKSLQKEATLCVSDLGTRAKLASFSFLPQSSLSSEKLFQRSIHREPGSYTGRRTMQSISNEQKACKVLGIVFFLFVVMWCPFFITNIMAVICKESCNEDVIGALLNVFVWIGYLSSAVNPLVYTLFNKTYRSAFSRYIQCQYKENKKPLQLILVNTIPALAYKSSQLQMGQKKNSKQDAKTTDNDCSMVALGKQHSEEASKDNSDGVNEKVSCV
The target of assay [10] is 5-hydroxytryptamine receptor 1D (Homo sapiens, UniProt P28221). The assay is described as follows: Binding affinity to human 5HT1D.
Sequence of 5-hydroxytryptamine receptor 1D (P28221 whole entry): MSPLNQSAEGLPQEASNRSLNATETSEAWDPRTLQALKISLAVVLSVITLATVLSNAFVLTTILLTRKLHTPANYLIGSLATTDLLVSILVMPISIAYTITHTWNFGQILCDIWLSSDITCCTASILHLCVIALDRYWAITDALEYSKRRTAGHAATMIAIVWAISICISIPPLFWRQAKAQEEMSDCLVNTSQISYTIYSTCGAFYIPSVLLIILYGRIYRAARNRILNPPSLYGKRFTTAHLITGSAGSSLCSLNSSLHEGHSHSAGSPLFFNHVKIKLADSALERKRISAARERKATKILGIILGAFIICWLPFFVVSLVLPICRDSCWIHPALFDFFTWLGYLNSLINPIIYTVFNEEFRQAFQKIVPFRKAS
For assay [11], the target named is 5-hydroxytryptamine receptor 1B (Homo sapiens, UniProt P28222). The assay is described as follows: Binding affinity to human 5HT1B.
Sequence of 5-hydroxytryptamine receptor 1B (P28222 whole entry): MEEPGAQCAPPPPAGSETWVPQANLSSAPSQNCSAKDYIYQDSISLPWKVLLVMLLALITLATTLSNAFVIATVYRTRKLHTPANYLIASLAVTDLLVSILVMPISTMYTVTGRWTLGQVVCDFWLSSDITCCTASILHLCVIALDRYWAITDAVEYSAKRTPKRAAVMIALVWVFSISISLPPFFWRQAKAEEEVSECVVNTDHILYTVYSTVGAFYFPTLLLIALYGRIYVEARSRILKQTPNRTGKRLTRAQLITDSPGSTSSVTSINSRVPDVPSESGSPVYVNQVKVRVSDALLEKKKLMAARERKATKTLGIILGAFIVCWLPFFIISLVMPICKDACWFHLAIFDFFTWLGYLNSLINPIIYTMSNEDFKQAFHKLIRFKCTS
Assay [12] addresses T3, 5-hydroxytryptamine receptor 1A (Homo sapiens, UniProt P08908).
T3 sequence (P08908 whole entry): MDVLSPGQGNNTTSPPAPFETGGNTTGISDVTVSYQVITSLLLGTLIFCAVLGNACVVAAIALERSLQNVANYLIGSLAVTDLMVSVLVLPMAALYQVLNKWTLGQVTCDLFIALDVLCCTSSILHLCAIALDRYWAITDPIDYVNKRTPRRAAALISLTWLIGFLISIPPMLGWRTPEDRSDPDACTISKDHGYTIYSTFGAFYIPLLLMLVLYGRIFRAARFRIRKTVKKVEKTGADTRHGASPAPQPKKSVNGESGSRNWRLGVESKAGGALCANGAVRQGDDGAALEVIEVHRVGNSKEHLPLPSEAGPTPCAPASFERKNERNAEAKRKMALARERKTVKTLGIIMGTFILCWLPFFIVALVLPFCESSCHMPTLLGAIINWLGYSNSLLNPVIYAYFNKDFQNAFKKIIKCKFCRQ
The assay is described as follows: Binding affinity to human 5HT1A.

Assay [13] concerns the target T4, 5-hydroxytryptamine receptor 4 (Homo sapiens, UniProt Q13639). In words: Intrinsic activity at human 5HT4R.
Assay [14] deals with T4, 5-hydroxytryptamine receptor 4. The assay is described as follows: Binding affinity to human 5HT4R.
The target in assay [15] is 5-hydroxytryptamine receptor 4 (Cavia porcellus, UniProt O70528). In words: Displacement of [3H]GR113808 from 5HT4R in guinea pig striatal membranes. The format is cell membranes, Striatum, Membrane.
Sequence of 5-hydroxytryptamine receptor 4 (Cavia porcellus, UniProt O70528) (O70528 whole entry): as the sequence (O70528 whole entry) above

T4 sequence (Q13639 whole entry): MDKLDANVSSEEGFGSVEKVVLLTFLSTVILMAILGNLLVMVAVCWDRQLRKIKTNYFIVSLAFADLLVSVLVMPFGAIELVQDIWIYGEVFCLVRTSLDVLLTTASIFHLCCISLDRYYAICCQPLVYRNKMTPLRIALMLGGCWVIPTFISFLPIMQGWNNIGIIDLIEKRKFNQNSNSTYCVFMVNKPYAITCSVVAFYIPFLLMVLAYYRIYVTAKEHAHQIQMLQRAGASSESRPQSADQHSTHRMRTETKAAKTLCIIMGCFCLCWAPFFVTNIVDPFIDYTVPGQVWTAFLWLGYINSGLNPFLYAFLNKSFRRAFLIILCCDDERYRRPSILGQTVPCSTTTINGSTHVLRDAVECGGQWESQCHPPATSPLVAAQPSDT
Sequence of 5-hydroxytryptamine receptor 5A (P47898 whole entry): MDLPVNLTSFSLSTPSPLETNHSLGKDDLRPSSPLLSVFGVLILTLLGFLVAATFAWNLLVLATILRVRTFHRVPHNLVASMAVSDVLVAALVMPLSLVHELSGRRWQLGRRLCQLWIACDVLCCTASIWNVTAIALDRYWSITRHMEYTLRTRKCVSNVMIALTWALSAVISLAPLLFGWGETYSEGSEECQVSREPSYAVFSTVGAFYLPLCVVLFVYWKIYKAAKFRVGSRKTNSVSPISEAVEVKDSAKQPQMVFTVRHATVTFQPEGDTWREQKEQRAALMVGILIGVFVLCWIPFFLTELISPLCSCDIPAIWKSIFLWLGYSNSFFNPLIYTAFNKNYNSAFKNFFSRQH
Sequence of 5-hydroxytryptamine receptor 6 (P50406 whole entry): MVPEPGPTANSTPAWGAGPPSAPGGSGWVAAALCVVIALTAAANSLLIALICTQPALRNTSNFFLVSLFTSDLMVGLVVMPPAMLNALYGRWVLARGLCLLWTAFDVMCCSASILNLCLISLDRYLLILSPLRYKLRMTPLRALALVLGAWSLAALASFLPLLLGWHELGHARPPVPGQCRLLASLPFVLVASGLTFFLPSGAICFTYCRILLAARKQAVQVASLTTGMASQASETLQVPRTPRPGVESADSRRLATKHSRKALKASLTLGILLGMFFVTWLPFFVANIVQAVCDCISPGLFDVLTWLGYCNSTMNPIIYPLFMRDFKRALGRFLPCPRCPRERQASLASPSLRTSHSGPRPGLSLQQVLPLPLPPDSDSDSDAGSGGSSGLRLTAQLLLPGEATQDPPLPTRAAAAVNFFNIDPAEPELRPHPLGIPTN
Sequence of 5-hydroxytryptamine receptor 2B (P41595 whole entry): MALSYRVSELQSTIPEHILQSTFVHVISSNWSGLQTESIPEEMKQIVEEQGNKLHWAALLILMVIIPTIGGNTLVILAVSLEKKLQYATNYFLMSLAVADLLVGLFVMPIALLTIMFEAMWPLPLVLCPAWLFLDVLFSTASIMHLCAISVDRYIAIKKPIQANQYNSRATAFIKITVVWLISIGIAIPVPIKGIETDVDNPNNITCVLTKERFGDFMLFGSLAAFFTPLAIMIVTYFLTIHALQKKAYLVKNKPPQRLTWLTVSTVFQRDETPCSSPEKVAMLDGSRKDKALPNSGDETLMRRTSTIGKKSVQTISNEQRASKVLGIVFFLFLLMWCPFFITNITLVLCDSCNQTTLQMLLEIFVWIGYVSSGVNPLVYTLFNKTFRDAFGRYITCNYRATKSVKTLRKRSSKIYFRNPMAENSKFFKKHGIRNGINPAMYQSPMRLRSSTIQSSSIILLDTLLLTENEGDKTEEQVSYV

Consider `Fc1cccc2c1nc(OCC1CCN(CC(F)F)CC1)c1ccccc12`, for which the inhibition in [1] worked out at 0%; in [2], 93%.

As for `Fc1cccc2c1nc(OCC1CCN(CCCC(F)(F)F)CC1)c1cccnc12`, the Ki is over 10000 nM in assay [3]; over 10000 nM in [4]; over 10000 nM in [5]; 2600 nM in [6]; 190 nM in assay [7]; 980 nM in [8]. Moreover, the Ki in [9] is 8700 nM; in assay [10] it was over 10000 nM; in assay [11], over 10000 nM; in [12], over 10000 nM; in assay [14], 0.2 nM; in assay [15], 4.2 nM. This molecule gave a Kb in [13] of 0.199 nM. For the same molecule, the inhibition in [1] was 80%; in [2], 100%.

As for `Fc1cccc2c1nc(OCC1CCN(CC(F)(F)F)CC1)c1ccccc12`, the inhibition turned out to be 0% in assay [1] and 3% in assay [2].

`FC(F)(F)CN1CCC(COc2nc3ccccc3c3ccccc23)CC1`: the figures for the inhibition in assay [1] and in assay [2] were 0% and 1%, respectively.

Regarding `FC(F)(F)C(F)(F)CN1CCC(COc2nc3ccccc3c3ccccc23)CC1`, the inhibition in [1] was determined as 0%; in assay [2], 1%.

In turn, `CCCN1CCC(COc2nc3c(F)cccc3c3ncccc23)CC1` displayed an inhibition in assay [1] of 94%.

As for `Fc1cccc2c1nc(OCC1CCN(CCC(F)(F)F)CC1)c1cccnc12`, the Ki in assay [3] was over 10000 nM; in [4], over 10000 nM; in assay [5] it was over 10000 nM; in assay [6], 1200 nM; in assay [7], 230 nM; in assay [8], over 10000 nM. For the same molecule, the inhibition constant Ki in [9] is over 10000 nM; in [10], over 10000 nM; in assay [11], over 10000 nM; in [12], over 10000 nM; in assay [14], 0.11 nM; in assay [15], 9 nM. This molecule also had a Kb in [13] of 0.079 nM. For the same molecule, the figures for the inhibition in assay [1] and in assay [2] were 80% and 100%, respectively.

For the molecule `Fc1cccc2c1nc(OCC1CCN(CC(F)(F)C(F)(F)F)CC1)c1ccccc12`, the inhibition in [1] is 0%; in assay [2], 4%.

`FC(F)CN1CCC(COc2nc3ccccc3c3ccccc23)CC1`: the inhibition was found to be 0% in [1] and 58% in [2].

In the case of `Fc1cccc2c1nc(OCC1CCN(CCCC(F)(F)F)CC1)c1ccccc12`, the inhibition came to 49% in [1] and 100% in [2]. The same molecule showed an inhibition constant Ki in assay [15] of 14.1 nM.

Consider `Fc1cccc2c1nc(OCC1CCN(CCC(F)(F)F)CC1)c1ccccc12`, for which the results for the inhibition in assay [1] and in assay [2] were 61% and 100%, respectively. Besides, the inhibition constant (Ki) in assay [15] came out at 22 nM.

In the case of `Fc1cccc2c1nc(OCC1CCN(CC(F)F)CC1)c1cccnc12`, the inhibition in assay [1] was determined as 26%; in assay [2], 100%. Moreover, affinity in assay [15] was put at a Ki of 91.4 nM.
